Test results as given in publication PMC6372683, “Mechanism of the natural product moracin-O derived MO-460 and its targeting protein hnRNPA2B1 on HIF-1α inhibition” (Experimental & Molecular Medicine, 2019).
“Also recorded” adds a separate entry of the source.

How the values were obtained:
HIF-1α = HIF-1α accumulation under real hypoxia (1% oxygen), western blotting and immunostaining; type: cell-based, human; conditions: 24 h
Description: For immunofluorescence observation, Hep3B cells were seeded on microplates at 2 or 5 × 10^4 cells/mL and cultured for 18 h. […] The medium in the microplate wells was then removed and cells were fixed with 3.7% formaldehyde in PBS for 15 min then permeabilized for 5 min with 100% cold MeOH. Cells were washed with PBS containing 1% bovine serum albumin (PBS-1% BSA), and then treated with 5% bovine serum albumin for 20 min. The cells in each well were treated with HIF-1α antibody in PBS-0.1% BSA then placed in a humidified atmosphere of 5% CO2 at 37 °C and incubated for 60 min. After being washed with PBS-0.1% BSA, treated wells of HIF-1α were incubated with Alexa Fluor 488-conjugated mouse anti-IgG antibody in PBS-0.1% BSA then incubated at room temperature for 60 min. After being washed with PBS-0.1% BSA, the dish wells were overlaid with Hoechst 33342 for 5 min at room temperature and then washed with PBS-0.1% BSA. Fluorescence was photographed with an inverted ECLIPSE Ti-U microscope (Nikon Corporation, Japan).

[1] = tested on: HIF-1α translation in presence of hnRNPA2B1; experiment: In vitro transcription/translation assay of HIF-1α; type: biochemical, human; conditions: purified hnRNPA2B1 protein added
Description: HIF-1α proteins were synthesized using in vitro transcription/translation systems (Promega, Madison, WI), the protocol was followed the manufacturer’s instructions. In brief, mixtures containing reaction components were incubated at 30 °C for 60 min, and then analyzed by Western blotting using HIF-1α. The template was used HIF-1α plasmid DNA containing untranslated region (Korea human gene bank, Daejeon, Rep. of Korea), and full-length recombinant hnRNPA2B1 and MO-460 were added to the mixture.

HIF-1α in Hep3B cells = experiment: HIF-1α protein accumulation under CoCl2 mimetic hypoxia (immunostaining and western blotting); type: cell-based, human
Hep3B cells = experiment: Stress granule formation (immunostaining of hnRNPA2B1 and TIA-1); type: cell-based, human; conditions: mimetic hypoxia
[2] = target: T1, hnRNPA2B1 GRD3 (301–353 aa) (Homo sapiens, UniProt P22626); experiment: BLItz association-dissociation binding assay, GST-fused GRD3; conditions: Con. 5 uM
T1 construct: hnRNPA2B1(301-353aa); made in house; host or cells: bacteria (pGEX6P-1 vector)
T1 sequence (P22626 301-353): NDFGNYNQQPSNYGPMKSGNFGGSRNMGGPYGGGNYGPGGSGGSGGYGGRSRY
Description: (§1) The binding capacity of hnRNPA2B1 to Biotin-MO-460 was also analyzed using a BLItz™ (Fortebio, Inc., CA, US) instrument with a streptavidin-coated biosensor tip (Pall, USA). The streptavidin-coated tips were pre-wetted for 10 min in an incubation buffer (10 mM HEPES pH 7.4, 1% BSA and 0.05% Tween 20). The streptavidin-coated tips were immobilized with 1 μM Biotin-MO-460 in incubation buffer (10 mM HEPES pH 7.4, 1% BSA and 0.05% Tween 20) for 5 min. The biosensor was washed with HEPES (pH 7.4) and incubated with 250-, 500- and 1,000-nM concentrations of the full-length and truncated hnRNPA2B1 proteins for 3 min. The concentrations were then incubated with HEPES for another 3 min to desorb the protein. Analysis of the accurate and precise kinetic constants was performed by the BLItz data analysis software (BLItz Pro 1.1).

[3] = target: T2, hnRNPA2B1 GRD (202–353 aa) (Homo sapiens, UniProt P22626); experiment: BLItz association-dissociation binding assay, GRD of hnRNPA2B1; conditions: 6XHis tagged protein, Con. 5 uM, biotin-MO-460 on streptavidin tip
T2 construct: 202–353 aa; His; made in house; host or cells: bacteria (pET28A vector)
Description: as §1, with “The biosensor was washed with HEPES (pH 7.4) and incubated with 250-, 500- and 1,000-nM concentrations of the full-length and truncated hnRNPA2B1 proteins for 3 min.” left out

hnRNPA2B1 = target: T3, hnRNPA2B1 (Homo sapiens, UniProt P22626); experiment: In vitro pull-down assay of purified recombinant hnRNPA2B1; type: binding; conditions: excess amount of MO-460 added
T3 construct: made in house; host or cells: HEK293T
Description: HEK293T cells were cultured in DMEM medium supplemented with 10% fetal bovine serum in a humidified atmosphere containing 5% CO2. The cells were transfected with C-terminal Myc/DDK-tagged hnRNPA2B1 constructs. Recombinant protein was captured with an anti-DDK affinity column followed by conventional chromatography. A streptavidin-conjugated biotin linker was used as a control or streptavidin-conjugated biotinylated MO-460 were treated with 5% bovine serum albumin in PBS for 1 h at room temperature. Myc/DDK-tagged hnRNPA2B1 protein (1 ug) was incubated with streptavidin-conjugated biotin linker (1,200 μM) or streptavidin-conjugated biotinylated MO-460 (400 μM) in the presence or absence of MO-460 (400 μg) in binding buffer for 6 h at 4 °C. The reacted beads were washed with binding buffer [10 mM HEPES pH 7.9, 10 mM KCl, 0.1 mM EGTA, 0.1 mM EDTA, 0.5 mM PMSF, 0.025% 2-mercaptoethanol, and protease inhibitor cocktail] and the bound proteins eluted with SDS/PAGE sample buffer. Proteins were resolved by SDS/PAGE and detected by silver staining.

T2 sequence (P22626 202-353): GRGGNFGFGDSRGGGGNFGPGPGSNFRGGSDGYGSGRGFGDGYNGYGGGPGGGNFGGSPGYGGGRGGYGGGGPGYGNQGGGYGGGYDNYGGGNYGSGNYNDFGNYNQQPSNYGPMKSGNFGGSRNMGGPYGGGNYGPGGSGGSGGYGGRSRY
T3 sequence (P22626 whole entry): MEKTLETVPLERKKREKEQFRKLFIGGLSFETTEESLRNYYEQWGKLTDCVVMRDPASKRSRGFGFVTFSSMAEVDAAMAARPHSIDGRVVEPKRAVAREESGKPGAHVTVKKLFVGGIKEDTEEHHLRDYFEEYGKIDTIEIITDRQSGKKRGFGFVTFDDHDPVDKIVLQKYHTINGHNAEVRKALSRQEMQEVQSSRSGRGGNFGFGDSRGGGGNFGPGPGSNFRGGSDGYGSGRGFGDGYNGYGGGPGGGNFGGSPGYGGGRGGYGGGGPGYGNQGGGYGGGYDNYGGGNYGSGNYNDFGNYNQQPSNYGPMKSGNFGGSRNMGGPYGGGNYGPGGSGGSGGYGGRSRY

**Q.** How did the HIF-1α accumulation (HIF-1α) turn out when CC(C)(O)[C@H]1Cc2cc3cc(-c4ccc(O)cc4)oc3cc2O1 [MO-460, (R)-4-[6-(1-Hydroxy-1-methylethyl)-5,6-dihydro-benzo[1,2-b;5,4-b’]difuran-2-yl]-phenol] was run?
**A.** reduction in HIF-1α accumulation

**Q.** What about the “effect on hnRNPA2B1-enhanced HIF-1α translation” value [1] of the same compound?
**A.** attenuated this effect

**Q.** What about the “accumulation of HIF-1α protein” value (HIF-1α in Hep3B cells; CoCl2 mimetic hypoxia, 24 h) of the same compound?
**A.** inhibits the accumulation of HIF-1α protein; also recorded: reduced the level of HIF-1α protein in a concentration-dependent manner; also recorded: completely eliminated the accumulation of HIF-1α

**Q.** And the “amount of hnRNPA2B1” value (HIF-1α in Hep3B cells; western blot)?
**A.** no effect

**Q.** What about the “stress granule formation, co-localization with TIA-1” value (Hep3B cells) of the same compound?
**A.** causes formation of cytoplasmic dots in hnRNPA2B1

**Q.** And the Kd [2]?
**A.** 0.299 µM

**Q.** What about the Kd [3] of the same compound?
**A.** 6.6 µM

**Q.** And the “interaction between hnRNPA2B1 and biotin-MO-460 on competition” value (hnRNPA2B1)?
**A.** eliminated
